The subject of data set [1] is SD rats. The conditions noted are these: rat, in vivo; for MLD: iv.
In data set [2] the test system is SD rats. As to the kind of experiment: animal or person. The class given is in vivo. The conditions noted are these: rat, in vivo, iv.

Read-outs that look alike come from different tables or passages of the source. Where only a bound is given, the exact number is not on record here.
Throughout, for Onset time: test concentration or dose not given here.
Throughout, for Righting feflex duration: test concentration or dose not given here.
Throughout, for Sedation Duration: test concentration or dose not given here.

Consider `Cc1cnc2n1-c1ccc(Br)cc1C(c1ccccn1)=NC2CCC(=O)OC1COC1` (stereo not shown) [Compound 4], for which, in the data set on SD rats [1], the TI is over 1.5 and the MLD is listed as over 22.5 mg/kg. Also, in the data set with SD rats [2], the “Minimal effective anesthetic dose” value came out at 15.0 mg/kg, the Onset time is 0.2 to 0.4 min, the Righting feflex duration is 1.1 to 3.5 min and the “Sedation Duration” value is 4.2 to 10.8 min.

In the data set with SD rats [1], `CC(=O)C(C)(C)OC(=O)CCC1N=C(c2ccccn2)c2cc(Br)ccc2-n2c(C)cnc21` (stereo not shown) [Compound 6] registered a TI of over 3.8 and an MLD of over 5 mg/kg. Besides, in the data set with SD rats [2], the “Minimal effective anesthetic dose” value was 1.3 mg/kg, the Onset time is 0.3 to 0.8 min, the Righting feflex duration was 0.6 to 3.4 min and the “Sedation Duration” value was in the range of 4.0 to 10.7 min.

In the data set on SD rats [1], `CN1C(=O)C(CCC(=O)OC2(C)COC2)N=C(c2ccccn2)c2cc(Br)ccc21` (stereo not shown) [Compound 14] displayed a TI of over 2 and an MLD of over 1 mg/kg. In the data set with SD rats [2], the “Minimal effective anesthetic dose” value was 0.5 mg/kg, the Onset time fell in the range of 0.2 to 0.7 min, the Righting feflex duration lay within 0.6 to 3.2 min and the “Sedation Duration” value lay in the range of 3.5 to 7.0 min.

For `CN1C(=O)C(CCC(=O)OC2COC2)N=C(c2ccccn2)c2cc(Br)ccc21` (stereo not shown) [Compound 16], in the data set on SD rats [1], the TI is reported as over 4.5 and the MLD is recorded as over 22.5 mg/kg. For the same compound, in the data set with SD rats [2], the “Minimal effective anesthetic dose” value is given as 5.0 mg/kg, the Onset time is 0.2 to 0.5 min, the Righting feflex duration is 0.6 to 1.7 min and the “Sedation Duration” value fell in the range of 3.2 to 5.3 min.

In the data set on SD rats [1], `C#CC(C)(C)OC(=O)CCC1N=C(c2ccccn2)c2cc(Br)ccc2N(C)C1=O` (stereo not shown) [Compound 17] returned a TI of over 3.8 and an MLD of over 5 mg/kg. In the data set with SD rats [2], the “Minimal effective anesthetic dose” value is recorded as 1.3 mg/kg, the Onset time fell in the range of 0.2 to 0.5 min, the Righting feflex duration was 1.6 to 3.3 min and the “Sedation Duration” value lay within 6.6 to 9.9 min.

Take `CC(=O)C(C)(C)OC(=O)CCC1N=C(c2ccccn2)c2cc(Br)ccc2N(C)C1=O` (stereo not shown) [Compound 18]: in the data set with SD rats [1], the TI is given as over 2.4 and the MLD is over 1.2 mg/kg. Moreover, in the data set with SD rats [2], the “Minimal effective anesthetic dose” value came to 0.5 mg/kg, the Onset time is 0.2 to 0.9 min, the Righting feflex duration lay within 0.8 to 4.2 min and the “Sedation Duration” value fell in the range of 4.5 to 10.7 min.

For the compound `C=CC(C)(C)OC(=O)CCC1N=C(c2ccccn2)c2cc(Br)ccc2N(C)C1=O` (stereo not shown) [Compound 19], in the data set with SD rats [1], the TI is listed as over 1.9 and the MLD is on record as over 1.9 mg/kg. Besides, in the data set on SD rats [2], the “Minimal effective anesthetic dose” value was 1.0 mg/kg, the Onset time was 0.4 to 1.0 min, the Righting feflex duration is 1.2 to 5.5 min and the “Sedation Duration” value was in the range of 9.7 to 14.8 min.

On to `C=CC(C)(C)OC(=O)CCC1N=C(c2cccc[n+]2[O-])c2cc(Br)ccc2N(C)C1=O` (stereo not shown) [Compound 20], for which, in the data set with SD rats [1], the TI is over 1.5 and the MLD is over 22.5 mg/kg. Moreover, in the data set with SD rats [2], the “Minimal effective anesthetic dose” value was 15.0 mg/kg, the Onset time is 0.3 to 0.5 min, the Righting feflex duration lay in the range of 4.1 to 6.4 min and the “Sedation Duration” value is 17.0 to 20.3 min.

In the data set on SD rats [1], `COC(=O)CCC1N=C(c2ccccn2)c2cc([N+](=O)[O-])ccc2N(C)C1=O` (stereo not shown) [Compound 27] showed a TI of over 1.8 and an MLD of over 18 mg/kg. Further, in the data set with SD rats [2], the “Minimal effective anesthetic dose” value came to 10.0 mg/kg, the Onset time lay within 0.2 to 0.5 min, the Righting feflex duration was in the range of 1.3 to 3.9 min and the “Sedation Duration” value is 4.4 to 10.7 min.

In the data set on SD rats [1], `CCOC(=O)CCC1N=C(c2ccccn2)c2cc([N+](=O)[O-])ccc2N(C)C1=O` (stereo not shown) [Compound 28] showed a TI of over 2.3 and an MLD of over 11.3 mg/kg. Besides, in the data set with SD rats [2], the “Minimal effective anesthetic dose” value was 5.0 mg/kg, the Onset time was 0.2 to 0.5 min, the Righting feflex duration was in the range of 0.5 to 1.6 min and the “Sedation Duration” value lay within 4.1 to 7.3 min.

In the data set with SD rats [1], `C#CC(C)(C)OC(=O)CCC1N=C(c2ccccn2)c2cc([N+](=O)[O-])ccc2N(C)C1=O` (stereo not shown) [Compound 32] had a TI of 6.0 and an MLD of 30 mg/kg. Moreover, in the data set with SD rats [2], the “Minimal effective anesthetic dose” value is reported as 5.0 mg/kg, the Onset time fell in the range of 0.2 to 0.4 min, the Righting feflex duration was 1.8 to 7.7 min and the “Sedation Duration” value is 21.1 to 45.7 min.

`C=C1N=C(c2ccccn2)c2cc(Br)ccc2N(C)C1=O` [Compound 36]: in the data set on SD rats [1], the TI is 1.9 and the MLD worked out at 18.7 mg/kg. In the data set on SD rats [2], the “Minimal effective anesthetic dose” value is 10.0 mg/kg, the Onset time was in the range of 0.4 to 0.9 min, the Righting feflex duration was 0.7 to 4.1 min and the “Sedation Duration” value was in the range of 8.6 to 14.7 min.

In the data set on SD rats [1], `CN1C(=O)C(CO)N=C(c2ccccn2)c2cc(Br)ccc21` (stereo not shown) [Compound 37] came in with a TI of over 2.0 and an MLD of over 10 mg/kg. Moreover, in the data set with SD rats [2], the “Minimal effective anesthetic dose” value is reported as 5.0 mg/kg, the Onset time lay in the range of 0.3 to 0.6 min, the Righting feflex duration lay within 0.7 to 5.8 min and the “Sedation Duration” value was in the range of 15.3 to 21.3 min.

`CCC(=O)OCC1N=C(c2ccccn2)c2cc(Br)ccc2N(C)C1=O` (stereo not shown) [Compound 40]: in the data set on SD rats [1], the TI stood at 8.0 and the MLD turned out to be 40 mg/kg. Besides, in the data set with SD rats [2], the “Minimal effective anesthetic dose” value came out at 5.0 mg/kg, the Onset time lay within 0.2 to 0.5 min, the Righting feflex duration lay within 1.3 to 17.2 min and the “Sedation Duration” value fell in the range of 40.2 to 364.0 min.

`CN1C(=O)C(CCOC(=O)OC2COC2)N=C(c2ccccn2)c2cc(Br)ccc21` (stereo not shown) [Compound 134] displayed an MLD with SD rats [1] of 20 mg/kg.

`Cc1cnc2n1-c1ccc(Br)cc1C(c1ccccn1)=NC2CCOCc1ccccc1` (stereo not shown) [Compound 144] came in with an MLD in the data set with SD rats [1] of 3.8 mg/kg.

In the data set with SD rats [1], `COC(=O)CCC1N=C(c2ccccn2)c2cc3nc(C(F)(F)F)sc3cc2N(C)C1=O` (stereo not shown) [Compound 180] gave an MLD of 40 mg/kg.

In the data set with SD rats [1] (SD), `CN(C)C(=O)CN1N=C(c2ccccn2)c2cc(Br)ccc2N(C)C1=O` [Compound 258] returned an MLD of 40 mg/kg.

For the compound `COC(=O)CCN1N=C(c2ccccn2)c2cc(Br)ccc2N(C)C1=O` [Compound 259], the MLD with SD rats [1] (SD) was over 20 mg/kg.

Take `C=CC1(OC(=O)CCN2N=C(c3ccccn3)c3cc(Br)ccc3N(C)C2=O)COC1` [Compound 262]: in the data set with SD rats [1] (SD), the MLD was over 20 mg/kg.

Consider `CN1C(=O)N(CCC#N)N=C(c2ccccn2)c2cc(Br)ccc21` [Compound 263], for which the MLD in the data set with SD rats [1] (SD) is given as 40 mg/kg.

As to `CCn1nnc(CCN2N=C(c3ccccn3)c3cc(Br)ccc3N(C)C2=O)n1` [Compound 265], in the data set on SD rats [1], the MLD worked out at 40 mg/kg.

For the compound `CCn1nnnc1CN1N=C(c2ccccn2)c2cc(Br)ccc2N(C)C1=O` [Compound 268], the MLD in the data set with SD rats [1] was determined as 40 mg/kg.

With `CCn1nnc(CN2N=C(c3ccccn3)c3cc(Br)ccc3N(C)C2=O)n1` [Compound 269], the MLD in the data set with SD rats [1] (SD) is recorded as over 36 mg/kg.

Turning to `COc1cc(CCN2N=C(c3ccccn3)c3cc(Br)ccc3N(C)C2=O)on1` [Compound 270], the MLD with SD rats [1] (SD) is 29.64 mg/kg.

`CCOc1cc(CCN2N=C(c3ccccn3)c3cc(Br)ccc3N(C)C2=O)on1` [Compound 271] gave an MLD in the data set with SD rats [1] (SD) of 30 mg/kg.

With `CC(C)Oc1cc(CCN2N=C(c3ccccn3)c3cc(Br)ccc3N(C)C2=O)on1` [Compound 272], the MLD with SD rats [1] (SD) worked out at 30 mg/kg.

In the data set on SD rats [1] (SD), `CCOC(=O)C(C)N1N=C(c2ccccn2)c2cc(Br)ccc2N(C)C1=O` (stereo not shown) [Compound 276] had an MLD of 20 mg/kg.

As for `CC(C)OC(=O)C(C)N1N=C(c2ccccn2)c2cc(Br)ccc2N(C)C1=O` (stereo not shown) [Compound 277], in the data set on SD rats [1] (SD), the MLD is recorded as 20 mg/kg.

With `CCOC(=O)C(C(C)C)N1N=C(c2ccccn2)c2cc(Br)ccc2N(C)C1=O` (stereo not shown) [Compound 278], in the data set on SD rats [1], the MLD was found to be 40 mg/kg.

For the compound `CC(C)C(=O)OC(CN1N=C(c2ccccn2)c2cc(Br)ccc2N(C)C1=O)C(C)C` (stereo not shown) [Compound 280], in the data set with SD rats [1] (SD), the MLD is given as 10 mg/kg.

In the case of `CCC(=O)CN1N=C(c2ccccn2)c2cc(Br)ccc2N(C)C1=O` [Compound 281], the MLD with SD rats [1] (SD) was determined as 40 mg/kg.

Regarding `CCC(CN1N=C(c2ccccn2)c2cc(Br)ccc2N(C)C1=O)OC(=O)C(C)C` (stereo not shown) [Compound 282], the MLD in the data set with SD rats [1] was determined as 15 mg/kg.

For `CN1C(=O)N(CCc2cc(Br)no2)N=C(c2ccccn2)c2cc(Br)ccc21` [Compound 283], the MLD in the data set with SD rats [1] (SD) is 40 mg/kg.

As to `CN1C(=O)N(CCOCc2ccccc2)N=C(c2ccccn2)c2cc(Br)ccc21` [Compound 285], the MLD in the data set with SD rats [1] (SD) amounted to 15 mg/kg.

As to `CCN(C(=O)OCN1N=C(c2ccccn2)c2cc(Br)ccc2N(C)C1=O)C(C)C` [Compound 296], the MLD with SD rats [1] (SD) was determined as 15 mg/kg.

`CN1C(=O)N(C[n+]2ccccc2)N=C(c2ccccn2)c2cc(Br)ccc21` [Compound 297] showed an MLD with SD rats [1] (SD) of 5 mg/kg.

The compound `CN1C(=O)N(CCOC(=O)CCCl)N=C(c2ccccn2)c2cc(Br)ccc21` [Compound 299] displayed an MLD in the data set with SD rats [1] (SD) of 15 mg/kg.

In the case of `C=CC(=O)OCCN1N=C(c2ccccn2)c2cc(Br)ccc2N(C)C1=O` [Compound 301], the MLD in the data set on SD rats [1] (SD) amounted to 27.4 mg/kg.

In the data set with SD rats [1] (SD), `CC(C)OC(=O)OCCN1N=C(c2ccccn2)c2cc(Br)ccc2N(C)C1=O` [Compound 302] displayed an MLD of 20 mg/kg.

`CCOC(=O)CN1N=C(c2ccccn2)c2cc(Br)ccc2N=C1SC` [Compound 306] returned an MLD in the data set on SD rats [1] of 40 mg/kg.

As to `Cc1cnc2n1-c1ccc(Br)cc1C(c1ccccn1)=NN2CCOC(=O)OC(C)C` [Compound 316], the MLD with SD rats [1] (SD) was 10 mg/kg.

`Cc1c[n+]2c3n1-c1ccc(Br)cc1C(c1ccccn1)=NN3CC2` [Compound 321] returned an MLD with SD rats [1] (SD) of 10 mg/kg.

As to `O=CN1CCN2N=C(c3ccccn3)c3cc(Br)ccc3N=C12` [Compound 322], in the data set on SD rats [1], the MLD is reported as 34 mg/kg.

`CN1C2=NCCN2N=C(c2ccccn2)c2cc(Br)ccc21` [Compound 324]: in the data set with SD rats [1] (SD), the MLD is on record as over 15.7 mg/kg.

The values above are taken from patent EP4711368A1 (priority 2023, dated 2024).
